The results in this text go back to article PMC10547674, “Bioactive metabolites identified from Aspergillus terreus derived from soil” (AMB Express, 2023).

In data set [1] the target is ACE2/Spike (RBD) protein interaction (Homo sapiens, UniProt Q9BYF1). In words: ACE2: SARS-CoV-2 spike inhibitor screening colorimetric assay. The data set is classed as binding.
A further data set in a line: MTT cell viability. The note with it: mouse, RAW 264.7 cells. The data set is classed as cell-based, Murine. The method, then: (§1) Murine macrophage cells (RAW 264.7), supplied by American Type Culture Collection (ATCC), were grown on Dulbecco′s Modified Eagle Medium (DMEM), accompanied with 10%, […] and 100 μg/mL from bovine serum, penicillin, and streptomycin respectively. After that, cells were incubated in a CO2 atmosphere (5%, 37 °C) then they sub-cultured every 2 days and the cells of the exponential phase were used all over the procedure.
(§2) In vitro cytotoxicity assay kit MTT-based was purchased from Sigma- Aldrich, MTT cat No: M-5655, MTT solubilization solution: M-8910). RAW 264.7 cells (10,000/well) were plated in a 96-well plate then the test compounds (1–4) and the extract were diluted by a serial dilution technique (1000–4 μg/mL) were introduced and the plate was placed in a CO2 incubator (37 °C for 24 h). The cells were washed by DMEM and incubated with MTT solution (40 μL, 4 h). DMSO (180 μL) was used to solubilize the crystals of formazan and the produced color was measured at λ570 nm. The results were normalized against the control and the cell viability percentage was estimated as follows: %Cell viability=(Absorbance of sample/Absorbance of control)x100.

The subject of another data set is RAW 264.7 cells. In words: MTT cell viability. The note with it: 24 h. The data set is classed as cell-based, Murine. The protocol:
as §1, §2

Data set [2] has as its system IL-6. In words: LPS-induced inflammatory model, IL-6 level by ELISA. The data set is classed as cell-based, Murine. The following applies: LPS (500 ng/mL)-induced RAW 264.7, sample at ¼ IC50, ELISA of medium; LPS control 227.50 ± 29.2. The method, then: as §1
(§3) RAW 264.7 cells (1.8 × 10^5 cells/mL) were seeded for 18 h in a 24-well plate having DMEM medium (1 mL). […] Then, LPS (Sigma-Aldrich Cat No: L2630) (500 ng/mL, LPS control) was added to all treated and untreated wells to induce the inflammatory process. After incubation for 24 h, the media were taken and frozen till analysis. The untreated wells represented the LPS control group.
(§4) TNF- α quantitative assay ELISA kit (Abcam, ab181421 Human TNF alpha Simple Step) and Il-6 quantitative assay ELISA kit (Abcam, Ab178013 Human IL-6 Simple Step) were used to quantify IL-6 and TNF- α levels in the cell culture medium following the manufacturer′s instructions (Afshari et al. [2005]).
A general note: An ELISA detects its analyte on a solid surface through an enzyme-linked reagent.

The test system of data set [3] is TNF-α. Briefly: LPS-induced inflammatory model, TNF-α level by ELISA. The data set is classed as cell-based, Murine. The following applies: LPS (500 ng/mL)-induced RAW 264.7, sample at ¼ IC50, ELISA of medium; LPS control 452.5 0 ± 46.1. The protocol: as §1, §3, §4
Data set [4] has as its system IL-6. In words: RT-PCR, IL-6 mRNA expression in LPS-stimulated RAW 264.7 cells. The data set is classed as cell-based, Murine. The note with it: LPS-induced RAW 264.7, compared to LPS control. The protocol: as §3
(§5) RAW 264.7 cells were washed two times and then harvested in PBS (1 mL). Total RNA from the stimulated RAW 264.7 cells was extracted utilizing Qiagen RNA extraction (Qiagen, MD, USA) following the instructions of the procedure. cDNA was synthesized by iScript cDNA synthesis kit (Bio-Rad Laboratories Pty. Ltd, Gladesville, Australia). Rotorgene RT-PCR system (QIAGEN, Germany) was used for PCR amplification using BioRad cyber green PCR MMX (Bio-Rad Laboratories Pty. Ltd, Gladesville, Australia). The primers used for the amplification of IL-6, TNF-α, and β-actin genes are represented in Additional file 1: Table S4.
(§6) The Formula 2^−(ΔΔCt) was used to calculate the relative fold change between samples and control.

For a further data set, the system named is S. aureus. In words: MIC and MBC, resazurin microplate dilution. The data set is classed as cell-based, Staphylococcus aureus. The method, then: (§7) The tested strains were cultivated in 100 mL bottles at 35 °C for 24 h on Mueller Hinton medium (Sigma-Aldrich, Germany). Bacteria and fungi cells (pellet) were collected by centrifugation at 5000 rpm, 4 °C, and under aseptic conditions, then washed with sterile saline till the supernatant became clear. […] Duplicate plates were prepared and incubated (37 °C, 18-24 h). The lowest concentration at which the color is changed is the MIC data, while MBC has been calculated by streaking two concentrations higher than MIC showing no growth ([…] et al. [2007]).

In a further data set the test system is C. albicans. In words: MIC and MBC, resazurin microplate dilution. The data set is classed as cell-based, Candida albicans. The method, then: as §7
In data set [5] the test system is Staphylococcus aureus ATCC 6538. Briefly: Agar disc diffusion. The note with it: disc loaded with about 0.01mg; for Zone of inhibition: S. aureus; for zone of inhibition at 10 µg/disc: Staphylococcus aureus, ATCC6538, S. aureus.
Experimental: (§8) Staphylococcus aureus ATCC 6538, Escherichia coli ATCC 25922, Candida albicans ATCC 10231and Aspergillus niger NRRL-A326 were supplied from Culture Collection Center. The antimicrobial activity of A. terreus extract and 1–4 was investigated by the agar disc diffusion method (Abdel-Wareth et al. [2019]). Nutrient agar (bacteria and yeast) and PDA (fungi) plates were seeded with 0.1 mL of 10^5–10^6 cells/mL then the filter paper discs (0.5 cm) were loaded with about 0.01mg from the extract and compounds, and put on the inoculated agar or PDA plates surface and stayed for 2–4 h at 4°C to reach maximum diffusion. After that, incubation of the plate at 30°C for 24 and 48 h for bacteria and fungi, respectively, to permit maximum growth then the inhibition zone diameter was measured in millimeters (mm). Experiments were carried out in triplicate.
The subject of data set [6] is Escherichia coli ATCC 25922. Briefly: Agar disc diffusion. The note with it: for zone of inhibition at 10 µg/disc: Escherichia coli, ATCC25922; for Zone of inhibition: E. coli, disc loaded with about 0.01mg. Background: A growth-free zone around the sample is the usual read-out of agar diffusion tests.
Experimental: as §8
The subject of data set [7] is Candida albicans ATCC 10231. Briefly: Agar disc diffusion. The following applies: disc loaded with about 0.01mg; for Zone of inhibition: C. albicans; for zone of inhibition at 10 µg/disc: Candida albicans, ATCC10231, C. albicans.
Experimental: as §8
In data set [8] the test system is Aspergillus niger NRRL-A326. In words: Agar disc diffusion. The note with it: for zone of inhibition at 10 µg/disc: Aspergillus niger, NRRLA326; for Zone of inhibition: A. niger, disc loaded with about 0.01mg.
Experimental: as §8
Data set [9] concerns TNF-α. In words: RT-PCR, TNF-α mRNA expression in LPS-stimulated RAW 264.7 cells. The note with it: LPS-induced RAW 264.7, compared to LPS control. The data set is classed as cell-based, Murine. The protocol: as §3, §5, §6
The mark [10] stands for this setting: read-out: IC50 mean ± SD (cytotoxic effect).
[11] abbreviates: value given in µM, read-out: IC50 (cytotoxic effect) (converted).
The mark [12] stands for this setting: RAW 264.7 macrophage cells, read-out: IC50 mean ± SD (cytotoxic effect).
The mark [13] stands for this setting: RAW 264.7 macrophage cells, value given in µM, read-out: IC50 (cytotoxic effect) (converted).

In brackets after ≈: the same amount, converted by molar mass. Where two headings read alike, the source gives them in different places.

Chain of ACE2/Spike (RBD) protein interaction (Q9BYF1 18-740): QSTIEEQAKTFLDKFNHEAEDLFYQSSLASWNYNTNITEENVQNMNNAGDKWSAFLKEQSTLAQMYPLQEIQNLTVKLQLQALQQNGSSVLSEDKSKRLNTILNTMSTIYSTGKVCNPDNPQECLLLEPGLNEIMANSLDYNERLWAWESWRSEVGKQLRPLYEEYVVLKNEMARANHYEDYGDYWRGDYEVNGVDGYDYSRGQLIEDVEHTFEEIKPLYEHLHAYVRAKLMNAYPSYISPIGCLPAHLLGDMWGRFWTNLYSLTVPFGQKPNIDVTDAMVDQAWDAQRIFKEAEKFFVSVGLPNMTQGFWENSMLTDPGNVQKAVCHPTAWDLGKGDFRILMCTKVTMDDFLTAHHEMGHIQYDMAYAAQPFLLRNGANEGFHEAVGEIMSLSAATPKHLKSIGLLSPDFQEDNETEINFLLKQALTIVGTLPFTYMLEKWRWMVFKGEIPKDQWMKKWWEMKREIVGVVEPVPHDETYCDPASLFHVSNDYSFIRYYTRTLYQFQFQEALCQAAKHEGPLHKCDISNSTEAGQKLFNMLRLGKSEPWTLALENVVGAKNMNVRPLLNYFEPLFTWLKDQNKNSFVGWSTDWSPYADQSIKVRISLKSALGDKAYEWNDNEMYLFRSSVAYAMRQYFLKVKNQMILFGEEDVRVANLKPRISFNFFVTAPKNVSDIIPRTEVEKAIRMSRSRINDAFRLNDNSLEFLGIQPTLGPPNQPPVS

A word on the IC50: it is the concentration needed to halve the response being measured. The MIC is the lowest concentration found to suppress growth. In general, zone of inhibition refers to the size of the clear area around the sample on an inoculated plate. The low end stands for little suppression of growth, the high end for wide suppression of growth. In the case of `COC(=O)[C@]1(Cc2ccc(O)c(CC=C(C)C)c2)OC(=O)C(O)=C1c1ccc(O)cc1` [Compound 2, butyrolactone I], the IC50 in [1] (tested 5–50 µg/mL, triplicates) is 29.4 µM; in data set [1] (value given in µM), 29.5 µM. Also, the half-maximal inhibitory concentration (IC50) at 24 h in “MTT cell viability” (setting [10]) is 718 µg/mL; in the data set “MTT cell viability” (setting [11]), 1690 µM. Moreover, the “IC50 mean ± SD (cytotoxic effect)” value in the data set with RAW 264.7 cells was 718.7 ± 40.4 µg/mL (≈ 1690 µM). For the same compound, the “IL-6, mean ± SD” value with IL-6 [2] came to 37.25 ± 0.87 pg/mL. Besides, the “TNF-α mean ± SD” value in the data set on TNF-α [3] is recorded as 87.97 ± 6.7 pg/mL. The “expression of IL-6 mRNA” value with IL-6 [4] was “best inhibitory activity”. Also, the MBC in the data set on S. aureus (Staphylococcus aureus) and in the data set with C. albicans (Candida albicans) was 250 µg/mL (≈ 589 µM) throughout. Besides, the MIC against S. aureus (Staphylococcus aureus) and against C. albicans (Candida albicans) was 250 µg/mL (≈ 589 µM) each time. The Zone of inhibition in data set [5] is given as 19 mm; in [7] it was 11 mm. Besides, the zone of inhibition at 10 µg/disc was 19 to 25 mm in data set [5], 0 mm in data set [6], 11 to 22 mm in data set [7] and 0 mm in data set [8].
On to `C[C@@H]1C[C@@H]([C@H](O)CC2CC(=O)NC(=O)C2)C(=O)[C@@H](C)C1` [Cyclohexamide, reference compound], for which the Zone of inhibition was determined as 0 mm in data set [5], 0 mm in data set [6], 0 mm in data set [7] and 29 mm in data set [8].
On to `COC(=O)[C@]1(Cc2ccc(O)c(CC3OC3(C)C)c2)OC(=O)C(O)=C1c1ccc(O)cc1` (stereo partly shown) [Compound 3, butyrolactone III], for which the half-inhibitory concentration (IC50) is 21.6 µM in data set [1] (tested 5–50 µg/mL, triplicates) and 21.6 µM in data set [1] (value given in µM). In addition, the IC50 at 24 h was 246 µg/mL in the data set “MTT cell viability” (setting [10]) and 561 µM in the data set “MTT cell viability” (setting [11]). Also, the “IC50 mean ± SD (cytotoxic effect)” value with RAW 264.7 cells came to 246.8 ± 13.9 µg/mL (≈ 560 µM). Besides, the zone of inhibition at 10 µg/disc in data set [5], in data set [6], in [7] and in data set [8] was 0 mm in each case.
Regarding `CSC(O)(N1C(=O)CNC(=O)C1Cc1c[nH]c2ccccc12)N1C(=O)CC(=O)N2C(=O)c3cc(O)ccc3CC21` (stereo not shown) [Compound 4, asterrine], the IC50 in data set [1] (tested 5–50 µg/mL, triplicates) was 15.1 µM; in [1] (value given in µM), 15.1 µM. The IC50 at 24 h in “MTT cell viability” (setting [12]) is 449 ± 25.2 µg/mL; in the data set “MTT cell viability” (setting [13]), 797 µM. Besides, the “IL-6, mean ± SD” value in the data set on IL-6 [2] is reported as 129.00 ± 1.77 pg/mL. The “TNF-α mean ± SD” value in the data set with TNF-α [3] was 268.30 ± 3.43 pg/mL. Also, the MBC was 250 µg/mL (≈ 444 µM) against S. aureus (S. aureus); 250 µg/mL (≈ 444 µM) in the data set on S. aureus (Staphylococcus aureus, S. aureus, read-out: MBC); 500 µg/mL (≈ 887 µM) in the data set on C. albicans (Candida albicans, C. albicans, read-out: MBC). Moreover, the MIC in the data set on S. aureus (Staphylococcus aureus, S. aureus, read-out: MIC) turned out to be 125 µg/mL (≈ 222 µM); against C. albicans (C. albicans) it was 250 µg/mL (≈ 444 µM); in the data set on C. albicans (Candida albicans, C. albicans, read-out: MIC), 250 µg/mL (≈ 444 µM). The Zone of inhibition is reported as 25 mm in [5] and 15 mm in data set [7]. Besides, the zone of inhibition at 10 µg/disc in data set [5] was 19 to 25 mm; in data set [6] it was 0 mm; in [7], 11 to 22 mm; in data set [8], 0 mm.
As for `CCC/C=C\C/C=C\CCCCC(=O)OCC(COC(=O)CCCC/C=C\C/C=C\CCC)OC(=O)CCCC/C=C\CCCCC` [Compound 1, 1,3-di-(6Z,9Z)-trideca-6,9-dienoyl-2-(6Z) dodec-6-enoyl glycerol], the IC50 is 16 µM in data set [1] (tested 5–50 µg/mL, triplicates) and 15.8 µM in data set [1] (value given in µM). The IC50 at 24 h in the data set “MTT cell viability” (setting [12]) was 858 µg/mL; in the data set “MTT cell viability” (setting [13]) it was 1290 µM. Also, the “IL-6, mean ± SD” value in the data set on IL-6 [2] came to 51.63 ± 2.79 pg/mL. Moreover, in the data set on TNF-α [3], the “TNF-α mean ± SD” value worked out at 68.220 ± 3.09 pg/mL. Moreover, in the data set on TNF-α [9], the “expression of TNF-α mRNA” value was “most activity”. Moreover, the zone of inhibition at 10 µg/disc in [5], in data set [6], in [7] and in [8] was 0 mm in each case.
For the compound Neomycin [reference compound], the Zone of inhibition in data set [5] was found to be 21 mm; in data set [6] it was 8 mm; in data set [7], 23 mm; in data set [8], 0 mm.
